Calls of active or inactive are those of the source. No cut-off for these calls is given here. Starred links: 1 amine or outer side, 2 acyl side, 3 side chain; linkers in the order of their positions; H or OH if unused. Positions of bridges follow the written chain, without caps; N, C: chain ends. Non-standard residues stand in square brackets, D forms with d. Residues, ends and D or L forms follow the SMILES beside them. Chains are numbered I, II in the order given. Actinocin(1to9) = Cc1c2oc3c(C)ccc(C(=O)[*:2])c3nc-2c(C(=O)[*:1])c(N)c1=O; NMeV = CN[C@H](C(=O)O)C(C)C; Sar = CNCC(=O)O
Legend:
Jurkat [1] = experiment: Cytotoxicity against human Jurkat cells; format: functional, cell-based
HeLa [2] = experiment: Cytotoxicity against human HeLa cells; format: functional, cell-based
K562 [3] = experiment: Cytotoxicity against human K562 cells; format: functional, cell-based
MCF7 [4] = experiment: Cytotoxicity against human MCF7 cells; format: functional, cell-based
K562 [5] = experiment: Cytotoxicity against human K562 cells at <=100 uM; format: functional, cell-based
MCF7 [6] = experiment: Cytotoxicity against human MCF7 cells at <=100 uM; format: functional, cell-based
HeLa [7] = experiment: Cytotoxicity against human HeLa cells at <=100 uM; format: functional, cell-based
Jurkat [8] = experiment: Cytotoxicity against human Jurkat cells at <=100 uM; format: functional, cell-based
K562 [9] = experiment: Inhibition of transcription in human K562 cells at 3.5 uM after 120 mins; format: functional; design: scale not given: the % may be the effect or the level left
K562 [10] = experiment: Inhibition of protein synthesis in human K562 cells assessed as [14C]L-leucine incorporation at 3.5 uM after 120 mins; format: functional; design: scale not given: the % may be the effect or the level left
K562 [11] = experiment: Inhibition of transcription in human K562 cells at 4 uM after 120 mins; format: functional; design: scale not given: the % may be the effect or the level left
K562 [12] = experiment: Inhibition of DNA synthesis in human K562 cells assessed as [14C]thymidine incorporation at 4 uM after 120 mins; format: functional; design: scale not given: the % may be the effect or the level left
K562 [13] = experiment: Inhibition of cellular respiration in human K562 cells at 1.25 to 5 uM; format: functional, cell-based
K562 [14] = experiment: Inhibition of DNA synthesis in human K562 cells assessed as [14C]thymidine incorporation at 5 uM after 60 mins; format: functional; design: scale not given: the % may be the effect or the level left
K562 [15] = experiment: Inhibition of DNA synthesis in human K562 cells assessed as [14C]thymidine incorporation at 1.25 uM after 60 mins; format: functional; design: scale not given: the % may be the effect or the level left
K562 [16] = experiment: Inhibition of protein synthesis in human K562 cells assessed as [14C]L-leucine incorporation at 5 uM after 120 mins; format: functional; design: scale not given: the % may be the effect or the level left
K562 [17] = experiment: Inhibition of protein synthesis in human K562 cells assessed as [14C]L-leucine incorporation at 1.25 uM after 120 mins; format: functional; design: scale not given: the % may be the effect or the level left
K562 [18] = experiment: Inhibition of DNA synthesis in human K562 cells assessed as [14C]thymidine incorporation at 1.25 uM after 120 mins; format: functional; design: scale not given: the % may be the effect or the level left
K562 [19] = experiment: Inhibition of RNA synthesis in human K562 cells assessed as inhibition of [14C]uridine incorporation upto 5 uM after 120 mins; format: functional, cell-based
K562 [20] = experiment: Inhibition of DNA synthesis in human K562 cells assessed as [14C]thymidine incorporation at 5 uM after 120 mins; format: functional; design: scale not given: the % may be the effect or the level left
K562 [21] = experiment: Inhibition of protein synthesis in human K562 cells assessed as [14C]L-leucine incorporation at 5 uM after 60 mins; format: functional; design: scale not given: the % may be the effect or the level left
K562 [22] = experiment: Inhibition of protein synthesis in human K562 cells assessed as inhibition of [14C]L-leucine incorporation at 1.25 uM after 60 mins; format: functional, cell-based
K562 [23] = experiment: Inhibition of transcription in human K562 cells at 0.47 uM after 120 mins; format: functional; design: scale not given: the % may be the effect or the level left
K562 [24] = experiment: Inhibition of DNA synthesis in human K562 cells assessed as [14C]thymidine incorporation at 0.47 uM after 120 mins; format: functional; design: scale not given: the % may be the effect or the level left
K562 [25] = experiment: Inhibition of protein synthesis in human K562 cells assessed as [14C]L-leucine incorporation at 0.47 uM after 120 mins; format: functional; design: scale not given: the % may be the effect or the level left

Molecule `COc1cc(O)c(C(=O)O[C@@H]2C[C@]3(C)[C@H]4CC(C)(C)C[C@H]4C=C(C=O)[C@]23OC)c(C)c1Cl` has an IC50 (Jurkat [1]) of 4.1 µM, an IC50 (HeLa [2]) of 18.8 µM and an IC50 (K562 [3]) of 20.6 µM. The IC50 (MCF7 [4]) was 6.7 µM.
With `COc1cc(O)c(C(=O)O[C@@H]2C[C@]3(C)[C@H]4CC(C)(C)C[C@H]4C=C(CO)[C@]23O)c(C)c1Cl` the IC50 (Jurkat [1]) was 10.4 µM, the IC50 (HeLa [2]) was 40 µM and the IC50 (K562 [3]) was 38.9 µM. For the same molecule, the IC50 (MCF7 [4]) was 21.3 µM.
In the case of `COc1cc(O)c(C(=O)O[C@@H]2C[C@]3(C)[C@H]4[C@@H](O)C(C)(C)C[C@@]4(O)C=C(CO)[C@]23O)c(C)c1Cl`, the Activity (K562 [5]) is reported as “Not toxic”, the Activity (MCF7 [6]) is reported as “Not toxic” and the Activity (HeLa [7]) is reported as “Not toxic”. For the same molecule, the Activity (Jurkat [8]) was “Not toxic”.
`COc1cc(O)c(C(=O)O[C@@H]2C[C@]3(C)[C@H]4CC(C)(C)C[C@H]4[C@H](O)[C@@H](CO)[C@]23O)c(C)c1Cl` showed an IC50 (Jurkat [1]) of 13.3 µM, an IC50 (HeLa [2]) of 35.8 µM and an IC50 (K562 [3]) of 25 µM. It also gave an IC50 (MCF7 [4]) of 26.5 µM.
`C[C@@H]1C[C@@H]([C@H](O)CC2CC(=O)NC(=O)C2)C(=O)[C@@H](C)C1` [CYCLOHEXIMIDE] showed an Activity (K562 [9]) of 99% and an Activity (K562 [10]) of 26%.
`COc1cc(C)c(C(=O)O[C@@H]2C[C@]3(C)[C@H]4CC(C)(C)C[C@H]4C=C(C=O)[C@]23O)c(O)c1` [ARMILLARIN] gave an IC50 (HeLa [2]) of 16.7 µM, an IC50 (K562 [3]) of 9.9 µM and an IC50 (MCF7 [4]) of 11.6 µM.
`Cc1cc(O)cc(O)c1C(=O)O[C@@H]1C[C@]2(C)[C@H]3CC(C)(C)C[C@@]3(O)C=C(CO)[C@]12O` was tested, and the Activity (K562 [5]) was “Not toxic”, the Activity (MCF7 [6]) was “Not toxic” and the Activity (HeLa [7]) was “Not toxic”. The Activity (Jurkat [8]) was “Not toxic”.
`COc1cc(O)c(C(=O)O[C@@H]2C[C@]3(C)[C@H]4CC(C)(C)C[C@H]4C=C(C=O)[C@]23O)c(C)c1Cl` [ARMILLARIDIN] was tested, and the IC50 (Jurkat [1]) was 3 µM, the IC50 (HeLa [2]) was 9.2 µM and the IC50 (K562 [3]) was 8.9 µM. It also gave an IC50 (MCF7 [4]) of 7.8 µM.
`COc1cc(O)c(C(=O)O[C@@H]2C[C@]3(C)[C@H]4CC(C)(CO)C[C@@]4(O)C=C(CO)[C@]23O)c(C)c1Cl` (stereo not given in full) was tested, and the Activity (K562 [5]) was “Not toxic”, the Activity (MCF7 [6]) was “Not toxic” and the Activity (HeLa [7]) was “Not toxic”. The Activity (Jurkat [8]) was “Not toxic”.
With `Cc1c2oc3c(C)ccc(C(=O)N[C@@H]4C(=O)N[C@H](C(C)C)C(=O)N5CCC[C@H]5C(=O)N(C)CC(=O)N(C)[C@@H](C(C)C)C(=O)O[C@@H]4C)c3nc-2c(C(=O)N[C@@H]2C(=O)N[C@H](C(C)C)C(=O)N3CCC[C@H]3C(=O)N(C)CC(=O)N(C)[C@@H](C(C)C)C(=O)O[C@@H]2C)c(N)c1=O` [DACTINOMYCIN] (I: T[dV]P[Sar][NMeV] / II: T[dV]P[Sar][NMeV]; ester I:1-I:C, II:1-II:C; linker I:N-II:N via Actinocin(1to9)) the Activity (K562 [11]) was 2% and the Activity (K562 [12]) was 58%.
For `Cc1cc(O)cc(O)c1C(=O)O[C@@H]1C[C@@]2(C)C1=C(C=O)[C@@H](O)[C@@H]1CC(C)(C)C[C@@H]12` [DEHYDROARMILLYLORSELLINATE], the inhibition (K562 [13]) was “inactive”, the IC50 (Jurkat [1]) was 16.9 µM and the IC50 (HeLa [2]) was 15.2 µM. The Activity (K562 [14]) was 70%, the Activity (K562 [15]) was 90% and the IC50 (K562 [3]) was 5 µM. For the same molecule, the Activity (K562 [16]) was 35%, the Activity (K562 [17]) was 96% and the Activity (K562 [18]) was 71%. For the same molecule, the inhibition (K562 [19]) was “inactive”, the IC50 (MCF7 [4]) was 8 µM and the Activity (K562 [20]) was 35%. For the same molecule, the Activity (K562 [21]) was 76% and the inhibition (K562 [22]) was “inactive”.
In the case of `COc1cccc2c1C(=O)c1c(O)c3c(c(O)c1C2=O)C[C@@](O)(C(=O)CO)C[C@@H]3O[C@H]1C[C@H](N)[C@H](O)[C@H](C)O1` [DOXORUBICIN], the Activity (K562 [23]) is reported as 79%, the Activity (K562 [24]) is reported as 46% and the Activity (K562 [25]) is reported as 89%.
`COc1cc(O)c(C(=O)OCC2=C[C@]3(O)CC(C)(C)[C@H](O)[C@@H]3[C@@]3(C)C[C@@H](O)[C@@]23O)c(C)c1Cl` was tested, and the Activity (K562 [5]) was “Not toxic”, the Activity (MCF7 [6]) was “Not toxic” and the Activity (HeLa [7]) was “Not toxic”. For the same molecule, the Activity (Jurkat [8]) was “Not toxic”.
For `Cc1c(Cl)c(O)cc(O)c1C(=O)O[C@@H]1C[C@]2(C)[C@H]3CC(C)(C)C[C@@]3(O)C=C(CO)[C@]12O`, the IC50 (Jurkat [1]) was 46.6 µM, the IC50 (HeLa [2]) was > 100 µM and the IC50 (K562 [3]) was > 100 µM. The IC50 (MCF7 [4]) was > 100 µM.

Reference: ChEMBL document CHEMBL1759949, “In vitro cytotoxicity of melleolide antibiotics: structural and mechanistic aspects” (Bioorg Med Chem Lett, 2011)
